The record followed here is patent US10513521B2, “Compositions and methods for inhibiting BMP” (The Brigham and Women's Hospital, Inc., priority 2014, dated 2019).

Molecules are shown by their SMILES. Where “and” joins values, the source holds several entries; their conditions need not be identical. Identical values can stand only once.

Assay [1] addresses T1, ALK2 (Mus musculus, UniProt P37172).
T1 construct: The C2C12 cell line was selected for the measurement of ALK2 activity using BMP6 as the agonist; host or cells: C2C12
T1 sequence (P37172 21-509): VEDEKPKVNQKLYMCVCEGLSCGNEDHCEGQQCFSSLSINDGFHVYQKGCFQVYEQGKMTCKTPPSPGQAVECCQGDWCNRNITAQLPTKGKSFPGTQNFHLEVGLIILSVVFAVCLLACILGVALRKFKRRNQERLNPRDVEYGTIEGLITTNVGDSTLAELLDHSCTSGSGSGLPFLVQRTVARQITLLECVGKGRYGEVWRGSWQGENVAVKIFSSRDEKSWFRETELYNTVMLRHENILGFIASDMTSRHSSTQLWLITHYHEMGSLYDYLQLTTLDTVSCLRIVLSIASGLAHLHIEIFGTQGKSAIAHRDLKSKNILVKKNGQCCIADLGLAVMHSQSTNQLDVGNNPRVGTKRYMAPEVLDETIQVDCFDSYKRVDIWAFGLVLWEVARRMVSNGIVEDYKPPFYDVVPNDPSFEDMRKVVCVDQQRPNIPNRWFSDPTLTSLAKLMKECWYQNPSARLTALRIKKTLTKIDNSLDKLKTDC
As to the kind of experiment: HTRF pSMAD1 cell-based ALK2 assay (C2C12 cells, BMP6 as agonist). A digest of the protocol: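 Cells pre-starved, plated in 0.1% FBS medium for 4 h, compound added for 30 min, then stimulated 30 min with BMP9 (BAOEC) or BMP6 (C2C12). Phospho-SMAD1 measured by HTRF after overnight room-temperature detection incubation.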
On the technique in general: Time-resolved FRET reads energy transfer from a long-lived donor to a nearby acceptor.

Assay [2] concerns the target T1, ALK2. Put plainly: In-cell Western ALK2 assay (C2C12 cells, BMP6 as agonist). It counts as cell-based. The settings on record: read-out: BMP6 ICW. The text has this:
3. In-Cell Western ALK1 and ALK2 Assays in 384-Well Plate Format.
We also optimized cell-based In-cell Western assays for measurements of ALK1 and ALK2 activities that were used to determine compound activities in these two kinases. The cell lines and agonists used were same as described in above cell-based HTRF ALK1 and ALK2 assays. The initial cell plating and compound treatment were also same. The main difference is the detection of phosphorylation status of SMAD1. In t-cell Western assay, the cells were fixed and phosphorylation status of SMAD1 was detected by the ELISA instead of using the HTRF assay kit in above assay.
HyClone Fetal Bovine Serum was obtained from GE healthcare life sciences (Logan, Utah). BMP6 and BMP9 were purchased from R&D System (R&D). Anti-P-SMAD 1/5/8 rabbit mAb and anti-rabbit IgG, HRP-Linked antibody were purchased from Cell Signaling Technology (Danvers, Mass.). BioFX Chemiluminescent Ultra-Sensitive HRP Microwell Substrate ECL Reagent was obtained from SurModics (Edina, Minn.). The compound plates and the white solid MB assay plates were from Greiner Bio-one (Monroe, N.C.).
Similarly as described in above HTRF cell-based assay, this assay was performed in 384 well plate format. […] Pre-starved cells were then plated in 384 well plate in the starvation medium (containing in 0.1% FBS). After 4 hours, compound dilutions in DMSO were added to the assay plate and incubated for 30 minutes. The assay plate was then added with BMP6 for C2C12 cells or BMP9 for BAOEC cells and incubated for 30 minutes.
The cells were washed in the plate washer with PBS and blocked with 2% BSA in PBS for 1 h at room temperature on the rotator. After removing the blocking reagent, the cells were incubated with the anti-p-SMAD1 antibody in 2% BSA in PBS for overnight at 4° C. on rotator. The cells were washed with PBS in the plate washer and incubated with HRP conjugated second antibody in 2% BSA in PBS for 1 hour at room temperature. After a cell wash with PBS, ECL detection reagent was added and the plate was read in the luminesce mode in the ViewLux plate reader.

Assay [3] deals with BMP4. As to the kind of experiment: BMP4 HTRF assay. It counts as cell-based.
Assay [4] deals with T2, ALK5 (Homo sapiens, UniProt P36897).
T2 sequence (P36897 34-503): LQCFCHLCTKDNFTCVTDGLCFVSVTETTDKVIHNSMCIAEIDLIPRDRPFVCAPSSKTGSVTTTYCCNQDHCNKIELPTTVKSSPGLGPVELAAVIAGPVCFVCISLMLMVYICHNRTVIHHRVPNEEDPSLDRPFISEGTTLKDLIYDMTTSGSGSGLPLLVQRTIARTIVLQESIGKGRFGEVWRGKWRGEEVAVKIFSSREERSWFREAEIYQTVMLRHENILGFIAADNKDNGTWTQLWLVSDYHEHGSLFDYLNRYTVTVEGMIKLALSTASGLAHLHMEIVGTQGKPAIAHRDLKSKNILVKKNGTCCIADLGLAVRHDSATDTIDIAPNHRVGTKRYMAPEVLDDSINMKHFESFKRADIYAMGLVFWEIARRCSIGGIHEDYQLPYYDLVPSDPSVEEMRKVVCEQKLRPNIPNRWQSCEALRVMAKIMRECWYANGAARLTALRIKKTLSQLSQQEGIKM
As to the kind of experiment: TR-FRET enzymatic ALK kinase assay, ALK5.
Description: Six ALK kinase enzyme assays were developed for determination of compound activities on ALK1, ALK2, ALK3, ALK4, ALK5 and ALK6.
Briefly, the ALKs enzymatic assay was initiated by dispense 2.5 μl enzyme in 1× kinase reaction buffer. The assay plate was then added with compounds followed by incubation at room temperature for 10 minutes. Then 2.5 μl/well substrate was added.

In the case of `CC[S+](=O)([O-])c1cccc(-c2cnn3cc(-c4ccc(N5[C@H](C)CNC[C@@H]5C)cc4)cnc23)c1` [Compound 104, 6-(4-((2R,6S)-2,6-dimethylpiperazin-1-yl)phenyl)-3-(3-(ethylsulfonyl)phenyl)pyrazolo[1,5-a]pyrimidine], the IC50 in assay [1] (HTRF assay, BMP6 as agonist, C2C12 cells, read-out: BMP6 HTRF) is 170 nM; in assay [1] (cell-based assay, BMP6, read-out: Cell IC50 BMP6), 1.3 nM; in assay [2] it was 96 nM and 70 nM; in assay [3], 230 nM; in assay [4] it was > 10000 nM.
